Results: patent US6113896A, “Pharmaceutical compositions containing ecotin and homologs thereof” (priority 1994, dated 2000)

Test system: normal human plasma
Assay: Activated partial thromboplastin time (APTT) clotting assay
Assay type: biochemical
Conditions: ellagic acid
Experimental: For the activated partial thromboplastin time (APTT) assays, the activation time was set at 120 sec and acquisition time at 300 to 600 sec depending on the expected outcome of the assay. Citrated normal human plasma and inhibitor were incubated together. The sample (plasma and inhibitor) and activator (Instrumentation Laboratories Ellagic acid/Phospholipid mix Test Reagent) were automatically pipetted and incubated together for 2 min at 37° C., then CaCl2 was added and clotting time determined by means of optical assessment. The total incubation time of inhibitor with plasma was ca. 3 min before addition of activator, and 5 min before addition of CaCl2. Final concentrations were 0.57 nM to 5.7 μM ecotin, 15.3 ug protein/ml 293 cell membranes, 8.3 uM ellagic acid, 8.3 mM CaCl2, and 33.3% plasma in a total volume of 162 μl.

Substance: Ecotin: E. coli periplasmic protein having the 142 amino acid residue sequence reported by McGrath et al.; recombinant, P1 Met84
- concentration causing 10-fold prolongation of clotting time, APTT: ~0.3 μM
- concentration causing 10-fold prolongation of clotting time, APTT (listed as Wild type ecotin): ~ 0.3 μM
